Assay results taken from patent publication US20260055126A1, “SMALL MOLECULE COMPOUNDS WITH PHOSPHORYLATED ARYL STRUCTURES AND USE THEREOF” (HANGZHOU PHECDAMED CO., LTD., priority 2022, published 2026).
Several values for one entry are separate records, joined by “and”; a condition that tells them apart may be missing. Equal values may be shown once.

Assays:
[1] = system: recombinant TEAD1 protein (194-411, Uniprot ID: P28347); experiment: Thermal shift assay (protein melting point curve), TEAD1; format: binding; design: key to the marks not given beside the values; details: 10 μM TEAD protein, 50 μM test compound
[2] = target: recombinant TEAD3 protein (218-435, Uniprot ID: Q99594) (Homo sapiens (Human), UniProt Q99594); experiment: Thermal shift assay (protein melting point curve), TEAD3; format: binding; details: 10 μM TEAD protein, 50 μM test compound
[3] = target: recombinant TEAD4 protein (217-434, Uniprot ID: Q15561) (Homo sapiens (Human), UniProt Q15561); experiment: Thermal shift assay (protein melting point curve), TEAD4; format: binding; details: 10 μM TEAD protein, 50 μM test compound
[4] = In vitro liver microsome stability, mouse; format: in vitro ADME; details: mouse liver microsomes
Protocol: (§1) Testosterone is selected as the positive reference compound. The specific method is as follows:
(§2) Preparing 0.1MK3 PO4 (pH 7.4) buffer and 3×NADPH stock solution (6 mM, 5 mg/mL), and preheating in a 37° C. water bath; preparing spiking solution of tested compound and control compound: adding 5 μL compound stock solution (10 mM) to 95 μL acetonitrile; preparing 1.5 μM spiking solution in microsomes (0.75 mg/mL): add 1.5 μL spiking solution and 18.75 μL liver microsome solution (20 mg/mL) to 479.75 μL K3PO4 buffer; taking 30 μL spiking solution in microsomes and adding it to the multiwell plate, and incubating at 37° C. for 5 min; adding 15 μL of NADPH stock solution to each well, starting to react, and timing; adding 150 μL of acetonitrile solution containing IS at 0 min, 5 min, 15 min, 30 min, 45 min and 60 min respectively to terminate the reaction; after 10 min of oscillation, centrifuging the reaction at 6000 rpm for 15 min; taking 80 μL of supernatant from each well for LC/MS detection and calculating Ti/2.
(§3) Liver microsomes of mice, rats, dogs, and human used in the experiment are purchased from Xenotech.

[5] = In vitro liver microsome stability, human; format: in vitro ADME; details: human liver microsomes
Protocol: as §1, §2, §3

[6] = In vitro liver microsome stability, rat; format: in vitro ADME; details: rat liver microsomes
Protocol: as §1, §2, §3

[7] = In vitro liver microsome stability, dog; format: in vitro ADME; details: dog liver microsomes
Protocol: as §1, §2, §3

Caco-2 cells = experiment: Permeability test on Caco2 cells; format: in vitro ADME; details: for Papp average value: n = 2; for Papp / Receiving chamber concentration Area ratio/OD: single replicate
Protocol: After resuscitation, the Caco-2 cells are transferred to a conventional culture dish and cultured in a high-glucose DMEM medium (containing 10% FBS) at 37° C. and 5% CO2 in an incubator. When the cells cover 80% to 95% of the bottom of the dish, they are digested with trypsin containing 0.25% EDTA to disperse them into a single cell suspension, and the cell concentration is determined using a cell counter, after that, the concentration of the cell suspension is adjusted to 2 to 2.5×10^5/mL with fresh culture medium and inoculated into a Transwell polycarbonate membrane 12-well plate, the fresh culture medium is replaced every two days in the first two weeks and once a day in the last week, the culture is continued for 19 to 21 days to obtain a fully differentiated single cell layer.

Sequence of recombinant TEAD4 protein (217-434, Uniprot ID: Q15561) (Q15561 217-434): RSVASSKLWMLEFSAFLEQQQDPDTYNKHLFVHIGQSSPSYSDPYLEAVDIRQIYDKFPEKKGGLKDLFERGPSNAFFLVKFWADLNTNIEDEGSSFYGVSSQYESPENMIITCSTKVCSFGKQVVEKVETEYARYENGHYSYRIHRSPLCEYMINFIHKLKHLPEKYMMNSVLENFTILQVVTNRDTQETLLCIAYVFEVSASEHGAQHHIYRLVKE
Sequence of recombinant TEAD3 protein (218-435, Uniprot ID: Q99594) (Q99594 218-435): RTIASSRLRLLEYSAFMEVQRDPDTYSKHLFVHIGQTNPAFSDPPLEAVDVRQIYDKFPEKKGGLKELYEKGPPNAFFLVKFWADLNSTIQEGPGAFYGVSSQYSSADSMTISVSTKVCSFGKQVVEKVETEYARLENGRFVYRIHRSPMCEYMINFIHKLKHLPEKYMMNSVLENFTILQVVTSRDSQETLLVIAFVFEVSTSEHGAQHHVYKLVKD

CP(C)(=O)c1ccc(NCc2ccc(C(F)(F)F)cc2)c(-c2nccc(OC3COC3)n2)c1 [Compound 17]
Δ T m (TEAD1) [1]: ++++
Δ T m (TEAD3) [2]: +
Δ T m (TEAD4) [3]: ++
mouse half-life [4]: 0.565 h
human half-life [5]: 1.78 h
rat half-life [6]: 0.8 h
dog half-life [7]: 2.35 h
Papp average value (Caco-2 cells; AP→BL): 8.96 10^−6 cm/s
Papp (Caco-2 cells; AP→BL): 8.81 10^−6 cm/s and 9.12 10^−6 cm/s
Receiving chamber concentration Area ratio/OD (Caco-2 cells; AP→BL): 0.114 and 0.118
Papp average value (Caco-2 cells; BL→AP): 18.1 10^−6 cm/s
Papp (Caco-2 cells; BL→AP): 18.0 10^−6 cm/s and 18.2 10^−6 cm/s
Receiving chamber concentration Area ratio/OD (Caco-2 cells; BL→AP): 0.699 and 0.708
Penetration Type (Caco-2 cells; Caco2 cell model): High
intestinal permeability (Caco-2 cells; Caco2 cell model): high intestinal hypertonicity
